Measurements from patent US20190375708A1 (VenatoRx Pharmaceuticals, Inc., priority 2018, published 2019).

Columns and labels:
[1] = In vitro cytotoxicity assay (MTT cell viability) in HepG2 cells; assay type: cell-based, human; details: human
How it was run: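 Read-out: MTT formazan absorbance at 492 nm, expressed as % of vehicle signal; CC50 by 4-parameter non-linear regression. Parental HepG2, 20,000 cells/well, treated 7 days with compound from 30 μM down to 1.0 nM.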

[2] = system: HBV replication in HepAD38 cells; experiment: Anti-HBV replication assay in HepAD38 cells (QPCR of extracellular HBV DNA); assay type: cell-based, HBV (genotype D, serotype ayw); details: Hepatitis B virus, 168 h, 7 days incubation, extracellular HBV DNA by QPCR, read-out: Anti-HBV EC50
How it was run: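 Steps: seed HepAD38 overnight without tetracycline; refresh medium and add 1 log10 serial dilutions ([…]); incubate 7 days at 37 °C; quantify supernatant HBV DNA by QPCR; derive EC50 from a 4-parameter dose-response fit.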

Which CC50 at 7 days [1] does the source give for Nc1ncc(CNC(=O)C(=O)c2c(Cl)c(C(=O)Nc3ccc(F)c(Cl)c3)c3n2CCC3)s1 [Example 562, 5-(2-(((2-aminothiazol-5-yl)methyl)amino)-2-oxoacetyl)-6-chloro-N-(3-chloro-4-fluorophenyl)-2,3-dihydro-1H-pyrrolizine-7-carboxamide] here?
The CC50 at 7 days was 5 to 30 µM.

And the EC50 [2]?
Its EC50 is less than 0.05 µM.

Which CC50 at 7 days [1] does the source give for O=C(N[C@H]1COC[C@@H]1O)C(=O)c1c(Cl)c(C(=O)Nc2ccc(F)c(Cl)c2)c2n1CCC2 [Example 563, 6-chloro-N-(3-chloro-4-fluorophenyl)-5-(2-(((3S,4R)-4-hydroxytetrahydrofuran-3-yl)amino)-2-oxoacetyl)-2,3-dihydro-1H-pyrrolizine-7-carboxamide] here?
Its CC50 at 7 days is 5 to 30 µM.

What about the EC50 [2] of the same compound?
Its EC50 is less than 0.05 µM.

With O=C(N[C@H]1CCC[C@H]1O)C(=O)c1c(Cl)c(C(=O)Nc2ccc(F)c(Cl)c2)c2n1CCC2 [Example 564, 6-chloro-N-(3-chloro-4-fluorophenyl)-5--(2-(((1S,2R)-2-hydroxycyclopentyl)amino)-2-oxoacetyl)-2,3-dihydro-1H-pyrrolizine-7-carboxamide] as the compound, how does the CC50 at 7 days [1] read?
Its CC50 at 7 days is 5 to 30 µM.

And the EC50 [2]?
Its EC50 is less than 0.05 µM.

What does the source list for O=C(NC1(CO)CCC1)C(=O)c1c(Cl)c(C(=O)Nc2ccc(F)c(Cl)c2)c2n1CCC2 [Example 565, 6-chloro-N-(3-chloro-4-fluorophenyl)-5-(2-((1-(hydroxymethyl)cyclobutyl)amino)-2-oxoacetyl)-2,3-dihydro-1H-pyrrolizine-7-carboxamide]?
CC50 at 7 days [1]: 5 to 30 µM; EC50 [2]: < 0.05 µM

What does the source list for O=C(NC1(CO)CC1)C(=O)c1c(Cl)c(C(=O)Nc2ccc(F)c(Cl)c2)c2n1CCC2 [Example 566, 6-chloro-N-(3-chloro-4-fluorophenyl)-5-(2-((1-(hydroxymethyl)cyclopropyl)amino)-2-oxoacetyl)-2,3-dihydro-1H-pyrrolizine-7-carboxamide]?
CC50 at 7 days [1]: 5 to 30 µM; EC50 [2]: < 0.05 µM

For Cc1noc([C@@H](C)NC(=O)C(=O)c2c(Cl)c(C(=O)Nc3ccc(F)c(F)c3)c3n2CCC3)n1 [Example 567, (R)-6-chloro-N-(3,4-difluorophenyl)-5-(2-((1-(3-methyl-1,2,4-oxadiazol-5-yl)ethyl)amino)-2-oxoacetyl)-2,3-dihydro-1H-pyrrolizine-7-carboxamide], which CC50 at 7 days [1] is on record?
The CC50 at 7 days was greater than 30 µM.

And the EC50 [2]?
The EC50 was less than 0.05 µM.

Which CC50 at 7 days [1] does the source give for Cc1noc([C@H](C)NC(=O)C(=O)c2c(Cl)c(C(=O)Nc3ccc(F)c(F)c3)c3n2CCC3)n1 [Example 568, (S)-6-chloro-N-(3,4-difluorophenyl)-5-(2-((1-(3-methyl-1,2,4-oxadiazol-5-yl)ethyl)amino)-2-oxoacetyl)-2,3-dihydro-1H-pyrrolizine-7-carboxamide] here?
The CC50 at 7 days was 5 to 30 µM.

What about the EC50 [2] of the same compound?
Its EC50 is less than 0.05 µM.

Which CC50 at 7 days [1] does the source give for Nc1ncc(CNC(=O)C(=O)c2c(Cl)c(C(=O)Nc3ccc(F)c(F)c3)c3n2CCC3)s1 [Example 569, 5-(2-(((2-aminothiazol-5-yl)methyl)amino)-2-oxoacetyl)-6-chloro-N-(3,4-difluorophenyl)-2,3-dihydro-1H-pyrrolizine-7-carboxamide] here?
The CC50 at 7 days was greater than 30 µM.

What about the EC50 [2] of the same compound?
Its EC50 is less than 0.05 µM.

What does the source list for O=C(N[C@H]1COC[C@@H]1O)C(=O)c1c(Cl)c(C(=O)Nc2ccc(F)c(F)c2)c2n1CCC2 [Example 570, 6-chloro-N-(3,4-difluorophenyl)-5-(22-(((3S,4R)-4-hydroxytetrahydrofuran-3-yl)amino)-2-oxoacetyl)-2,3-dihydro-1H-pyrrolizine-7-carboxamide]?
CC50 at 7 days [1]: > 30 µM; EC50 [2]: < 0.05 µM

For O=C(N[C@H]1CCC[C@H]1O)C(=O)c1c(Cl)c(C(=O)Nc2ccc(F)c(F)c2)c2n1CCC2 [Example 571, 6-chloro-N-(3,4-difluorophenyl)-5-(2-(((1S,2R)-2-hydroxycyclopentyl)amino)-2-oxoacetyl)-2,3-dihydro-1H-pyrrolizine-7-carboxamide], which CC50 at 7 days [1] is on record?
The CC50 at 7 days was greater than 30 µM.

And the EC50 [2]?
Its EC50 is 0.05 to 0.499 µM.

Which CC50 at 7 days [1] does the source give for Cc1cc(NC(=O)c2c(Cl)c(C(=O)C(=O)N[C@H]3COC[C@@H]3O)n3c2CCC3)ccc1F [Example 572, 6-chloro-N-(4-fluoro-3-methylphenyl)-5-(2-(((3S,4R)-4-hydroxytetrahydrofuran-3-yl)amino)-2-oxoacetyl)-2,3-dihydro-1H-pyrrolizine-7-carboxamide] here?
The CC50 at 7 days was greater than 30 µM.

And the EC50 [2]?
Its EC50 is less than 0.05 µM.

Which CC50 at 7 days [1] does the source give for Cc1cc(NC(=O)c2c(Cl)c(C(=O)C(=O)NC(C)(C)C(F)(F)F)n3c2CCC3)cnc1F [Example 573, 6-chloro-N-(6-fluoro-5-methylpyridin-3-yl)-5-(2-oxo-2-((1,1,1-trifluoro-2-methylpropan-2-yl)amino)acetyl)-2,3-dihydro-1H-pyrrolizine-7-carboxamide] here?
Its CC50 at 7 days is greater than 30 µM.

And the EC50 [2]?
Its EC50 is 0.05 to 0.499 µM.

For Cc1cc(NC(=O)c2c(Cl)c(C(=O)C(=O)N[C@@H](C)C(F)(F)F)n3c2CCC3)cnc1F [Example 574, (S)-6-chloro-N-(6-ffluoro-5-methylpyridin-3-yl)-5-(2-oxo-2-((1,1,1-trifluoropropan-2-yl)amino)acetyl)-2,3-dihydro-1H-pyrroliine-7-carboxamide], which CC50 at 7 days [1] is on record?
Its CC50 at 7 days is 5 to 30 µM.

What about the EC50 [2] of the same compound?
Its EC50 is 0.5 to 1 µM.

Which results are given for Cc1cc(NC(=O)c2c(Cl)c(C(=O)C(=O)NC(C)(C)CO)n3c2CCC3)cnc1F [Example 575, 6-chloro-N-(6-fluoro-5-methylpyridin-3-yl)-5-(2-((1-hydroxy-2-methylpropan-2-yl)amino)-2-oxoacetyl)-2,3-dihydro-1H-pyrrolizine-7-carboxamide]?
CC50 at 7 days [1]: > 30 µM; EC50 [2]: 0.5 to 1 µM

For Cc1cc(NC(=O)c2c(Cl)c(C(=O)C(=O)N[C@H](C)C(F)(F)F)n3c2CCC3)cnc1F [Example 576, (R)-6-chloro-N-(6-fluoro-5-methylpyridin-3-yl)-5-(2-oxo-2-((1,1,1-trifluoropropan-2-yl)amino)acetyl)-2,3-dihydro-1H-pyrrolizine-7-carboxamide], which CC50 at 7 days [1] is on record?
The CC50 at 7 days was 5 to 30 µM.

What about the EC50 [2] of the same compound?
The EC50 was 0.05 to 0.499 µM.

For Cc1cc(NC(=O)c2c(Cl)c(C(=O)C(=O)NCC(C)(C)CO)n3c2CCC3)cnc1F [Example 577, 6-chloro-N-(6-fluoro-5-methylpyridin-3-yl)-5-(2-((3-hydroxy-2,2-dimethylpropyl)amino)-2-oxoacetyl)-2,3-dihydro-1H-pyrrolizine-7-carboxamide], which CC50 at 7 days [1] is on record?
The CC50 at 7 days was greater than 30 µM.

What about the EC50 [2] of the same compound?
The EC50 was greater than 1 µM.

Which CC50 at 7 days [1] does the source give for Cc1cc(NC(=O)c2c(Cl)c(C(=O)C(=O)NCC(C)(C)O)n3c2CCC3)cnc1F [Example 578, 6-chloro-N-(6-fluoro-5-methylpyridin-3-yl)-5-(2-((2-hydroxy-2-methylpropyl)amino)-2-oxoacetyl)-2,3-dihydro-1H-pyrrolizine-7-carboxamide] here?
The CC50 at 7 days was greater than 30 µM.

What about the EC50 [2] of the same compound?
The EC50 was 0.5 to 1 µM.

Which CC50 at 7 days [1] does the source give for Cc1cc(NC(=O)c2c(Cl)c(C(=O)C(=O)NC3(CO)CC(F)(F)C3)n3c2CCC3)cnc1F [Example 579, 6-chloro-5-(2-((3,3-difluoro-1-(hydroxymethyl)cyclobutyl)amino)-2-oxoacetyl)-N-(6-fluoro-5-methylpyridin-3-yl)-2,3-dihydro-1H-pyrrolizine-7-carboxamide] here?
The CC50 at 7 days was greater than 30 µM.

What about the EC50 [2] of the same compound?
The EC50 was 0.5 to 1 µM.

With O=C(NC1(CO)CC(F)(F)C1)C(=O)c1c(Cl)c(C(=O)Nc2ccc(F)c(Cl)c2)c2n1CCC2 [Example 580, 6-chloro-N-(3-chloro-4-fluorophenyl)-5-(2-((3,3-difluoro-1-(hydroxymethyl)cyclobutyl)amino)-2-oxoacetyl)-2,3-dihydro-1H-pyrrolizine-7-carboxamide] as the compound, how does the CC50 at 7 days [1] read?
Its CC50 at 7 days is 5 to 30 µM.

And the EC50 [2]?
Its EC50 is less than 0.05 µM.

For O=C(NC1(CO)CC(F)(F)C1)C(=O)c1c(Cl)c(C(=O)Nc2ccc(F)c(F)c2)c2n1CCC2 [Example 581, 6-chloro-5-(2-((3,3-difluoro-1-(hydroxymethyl)cyclobutyl)amino)-2-oxoacetyl)-N-(3,4-difluorophenyl)-2,3-dihydro-1H-pyrrolizine-7-carboxamide], which CC50 at 7 days [1] is on record?
Its CC50 at 7 days is 5 to 30 µM.

And the EC50 [2]?
Its EC50 is less than 0.05 µM.

For CC(C)(C)NC(=O)C(=O)c1cc(C(=O)Nc2ccc(F)c(C#N)c2)c2n1CCOC2 [Example 582, 6-(2-(tert-butylamino)-2-oxoacetyl)-N-(3-cyano-4-fluorophenyl)-3,4-dihydro-1H-pyrrolo[2,1-c][1,4]oxazine-8-carboxamide], which CC50 at 7 days [1] is on record?
The CC50 at 7 days was greater than 30 µM.

And the EC50 [2]?
The EC50 was greater than 1 µM.

For Cc1cc(NC(=O)c2cc(C(=O)C(=O)NC(C)(C)C)n3c2COCC3)ccc1F [Example 583, 6-(2-(tert-butylamino)-2-oxoacetyl)-N-(4-fluoro-3-methylphenyl)-3,4-dihydro-1H-pyrrolo[2,1-c][1,4]oxazine-8-carboxamide], which CC50 at 7 days [1] is on record?
Its CC50 at 7 days is greater than 30 µM.

And the EC50 [2]?
Its EC50 is less than 0.05 µM.

Which results are given for O=C(NC1(CO)CCC1)C(=O)c1c(Cl)c(C(=O)Nc2ccc(F)c(F)c2)c2n1CCOC2 [Example 584, 7-chloro-N-(3,4-difluorophenyl)-6-(2-((1-(hydroxymethyl)cyclobutyl)amino)-2-oxoacetyl)-3,4-dihydro-1H-pyrrolo[2,1-c][1,4]oxazine-8-carboxamide]?
CC50 at 7 days [1]: 5 to 30 µM; EC50 [2]: < 0.05 µM

Which results are given for Cc1cc(NC(=O)c2cc(C(=O)C(=O)NC(C)(C)C)n3c2CN(C(=O)OC(C)(C)C)CC3)ccc1F [Example 587, tert-butyl 6-(2-(tert-butylamino)-2-oxoacetyl)-8-((4-fluoro-3-methylphenyl)carbamoyl)-3,4-dihydropyrrolo[1,2-a]pyrazine-2(1H)-carboxylate]?
CC50 at 7 days [1]: > 30 µM; EC50 [2]: 0.05 to 0.499 µM

For Cc1cc(NC(=O)c2cc(C(=O)C(=O)NC(C)(C)C)n3c2CNCC3)ccc1F [Example 588, 6-(2-(tert-butylamino)-2-oxoacetyl)-N-(4-fluoro-3-methylphenyl)-1,2,3,4-tetrahydropyrrolo[1,2-a]pyrazine-8-carboxamide], which CC50 at 7 days [1] is on record?
The CC50 at 7 days was 5 to 30 µM.

What about the EC50 [2] of the same compound?
Its EC50 is 0.05 to 0.499 µM.

Which results are given for Cc1cc(NC(=O)c2cc(C(=O)C(=O)NC(C)(C)C)n3c2CN(S(C)(=O)=O)CC3)ccc1F [Example 589, 6-(2-(tert-butylamino)-2-oxoacetyl)-N-(4-fluoro-3-methylphenyl)-2-(methylsulfonyl)-1,2,3,4-tetrahydropyrrolo[1,2-a]pyrazine-8-carboxamide]?
CC50 at 7 days [1]: > 30 µM; EC50 [2]: 0.5 to 1 µM
